Where two headings read alike, the source gives them in different places.
Columns and labels:
[1] = biological target: ERK2 (Homo sapiens, UniProt P28482); assay: DSF, binding to ERK2; settings: 10-100 μM
Experimental: Differential Scanning Fluorimetry (DSF): Binding of CADD selected compounds to p38α and […] was tested experimentally using DSF, which evaluates changes in the target protein melting temperature (ΔTm) due to interactions with test compound. SYPRO orange (Invitrogen; diluted 1:1000 in 10 mM HEPES, 150 mM NaCl, pH 7.5) and 1 μM unphosphorylated recombinant human p38α were added to 96-well PCR plates, then 50 nM to 200 μM test compound in 100% DMSO (2% final DMSO concentration) was added, the plates mixed, sealed, centrifuged at 1000 rpm for 1 min, and melting curve performed using an Applied Biosystems real time PCR instrument. The melting point was determined from the first derivative curve. In addition, […], or target-disrupted p38α mutant are used as well.
Test compounds at 10-100 μM were screened for binding to recombinant p38α and ERK2 using DSF (FIG. 1e, Table 1).

[2] = biological target: T1, p38β (Homo sapiens, UniProt Q15759); assay: DSF, binding to p38β
T1 construct: HA (N); made in house; host or cells: E. coli BL21

[3] = biological target: T2, p38α mutant (R49K/HL107-8TF/K165R) (Homo sapiens, UniProt Q16539, H107T/K165R/L108F/R49K); assay: DSF, binding to p38α mutant with 4 mutations in CADD-targeted pocket; settings: four of ten target pocket amino acids substituted
T2 construct: made in house; host or cells: E. coli BL21

[4] = biological target: T1, p38β; assay: STD-NMR with p38β; format: binding; settings: 200 μM UM101, 5 μM protein
Experimental: (§1) Saturation Transfer Difference Nuclear Magnetic Resonance (STD-NMR): A 40 mM stock solution of UM101 was made in d6-DMSO. STD-NMR samples contained 150 mM NaCl, 50 mM phosphate, pH 7,200 μM UM101, and 5 μM p38 protein in D20. Spectra were recorded on an Agilent DD2 500-MHz spectrometer equipped with a 5-mm inverse HFCN probe head at 300 K. During each transient, the protein was saturated with a series of 58 […]-shaped pulses (50 ms, 1 ms delay between pulses) using the vendor-supplied STD-ES pulse sequence, for a total saturation time of 3 seconds. The on-resonance irradiation of protein was done at 0.5 ppm and off-resonance irradiation at 30 ppm. The vendor-supplied WATERGATE pulse sequence was used to suppress the water signal in the STD spectrum. The on-resonance and off-resonance pulse sequences were subtracted internally. A total of 16,384 transients were collected for each STD experiment with a 1 second delay between acquisitions, 6000 Hz spectral width, and 1.3 second acquisition time.
(§2) Selective binding of UM101 to the CADD-targeted pocket in p38α was confirmed using Saturation Transfer Difference (STD)-NMR. The peaks in the 1D spectrum are labeled according to tentative peak assignments of UM101 in aqueous form, based on assignments of UM101 in 2 mM d6-DMSO, which were obtained from the use of 1D proton and C13 and 2D-HMBC experiments. […]

[5] = biological target: T3, mutated p38α (Homo sapiens, UniProt Q16539, H107T/K165R/L108F/R49K); assay: STD-NMR with mutated p38α; format: binding; settings: 200 μM UM101, 5 μM protein
T3 construct: made in house; host or cells: E. coli BL21
Experimental: as §1, §2

[6] = system: HMVECL monolayers; assay: Endothelial permeability assay (10 kDa dextran flux), TNFα/hyperthermia; format: cell-based, human
Experimental: Endothelial permeability assay: Permeability of HMVECL monolayers was assessed by measuring transendothelial flux of 10 kDa dextran conjugated to Cascade blue fluorescent dye for 30 min at 37° C. in Matrigel-coated 3 μm pore size Transwell plates.
The capacity of UM60 and UM101 to stabilize endothelial barriers to macromolecules and neutrophils in TNFα- and hyperthermia-stressed HMVECL monolayers was tested (FIG. 2).

[7] = system: HMVECLs; assay: IL-8-directed neutrophil transendothelial migration (TEM) assay; format: cell-based, human
Experimental: Neutrophil transendothelial migration (TEM) assay: Neutrophils were isolated from heparinized venous blood that was collected from healthy volunteers using a protocol approved by the University of Maryland Institutional Review Board and TEM of calcein-labeled neutrophils through HMVECLs was measured.

[8] = system: HMVECLs; assay: MTS cytotoxicity assay; format: cell-based, human; settings: 100 μM for 48 h
Experimental: (§3) Cytotoxicity of HMVECL exposed to 10-100 μM of each compound is analyzed by MTS assay (Promega), LDH release (Promega), and immunoblotting for activated caspase-3 (Cell Signaling).
Cytotoxicity assay: Cytotoxicity was monitored in parallel HMVEC-L monolayers established in 96-well culture plates using a colorimetric assay that measured reduction of 3-(4,5-dimethylthiazol-2-yl)-5-(3-carboxymethoxyphenyl)-2-(4-sulfophenyl)-2H-tetrazolium (MTS) to a formazan dye (CellTiter 96™; Promega; Madison, Wis.) according to the manufacturer's protocol and quantifying product formation by measuring absorption at 490 nm.

[9] = system: HMVECLs; assay: LDH release cytotoxicity assay; format: cell-based, human; settings: 100 μM for 48 h
Experimental: as §3

[10] = system: MK2 phosphorylation in anisomycin-stimulated HeLa cells; assay: Inhibition of substrate phosphorylation, phospho-MK2 immunoblot; format: cell-based, human; settings: 30 min pretreatment
Experimental: (§4) Inhibition of substrate phosphorylation: A functional analysis of UM101 to block p38-dependent phosphorylation of MK2 and Stat-1 was performed in HeLa cells. […] Cell extracts prepared in RIPA buffer containing protease and phosphatase inhibitors were resolved by SDS-PAGE, transferred to PVDF membrane, blocked with 5% nonfat dry milk, probed with primary antibodies against phosphorylated MK2 and Stat-1, and total p38α as a loading control. Bands were detected using secondary antibodies conjugated to infrared fluorophores and infrared fluorescence imaging (Odyssey; LICOR).

[11] = system: Stat-1 phosphorylation in anisomycin-stimulated HeLa cells; assay: Inhibition of substrate phosphorylation, phospho-Stat-1 immunoblot; format: cell-based, human; settings: 30 min pretreatment
Experimental: as §4

[12] = system: LPS-induced acute lung injury in mice; assay: Mouse LPS acute lung injury model with UM101 analogues, total protein in lung lavage fluid (FIG. 9, FIG. 10); format: in vivo
Experimental: FIG. 9 illustrates that UM101 and analogues inhibit acute lung injury in a mouse model. Mice were pretreated i.p. with 1 mg of test compounds and then treated with […] LPS i.t. at 39° C. to induce inflammation. Lung injury was assessed by measuring total protein in the lung lavage fluid.
FIG. 10 illustrates that UM101 and analogues inhibit acute lung injury in a mouse model. All mice received 50 μg LPS i.t. and were kept 24 h at 39° C.; all treatments 1 mg in 0.5 ml DMSO given 6 h post-LPS; mean SM, n=5, *p=0.03 vs DMSO #1; †p=0.16 vs DMSO #2. Lung injury was assessed by measuring total protein in the lung lavage fluid.
First, the compounds can block thrombin-induced cell permeability in human vascular endothelial cells (FIG. 8). […] Mice were pretreated i.p. with 1 mg of test compounds and then treated with […] LPS i.t. at 39° C. to induce inflammation. Lung injury was assessed by measuring total protein in the lung lavage fluid. […] All mice received 50 μg LPS i.t. and were kept 24 h at 39° C.; all treatments 1 mg in 0.5 ml DMSO given 6 h post-LPS; mean±SM, n=5, *p=0.03 vs DMSO #1; †p=0.16 vs DMSO #2. Lung injury was assessed by measuring total protein in the lung lavage fluid.

[13] = system: LPS/hyperthermia-induced ALI in mice; settings: for mice died within 24 h: 1000 μg i.p. 30 min prior to 50 μg LPS i.t./hyperthermia
[14] = biological target: T4, p38α (Homo sapiens, UniProt Q16539); assay: STD-NMR with p38α; format: binding; design: made in house; host or cells: E. coli BL21; settings: 200 μM UM101, 5 μM protein
Experimental: as §1, §2

[15] = biological target: T4, p38α; assay: Differential scanning fluorimetry (DSF), binding to p38α; settings: for stabilization of p38α (DSF): 10-100 μM; for ΔTm at 100 µM: read-out: increase of the melting temperature of p38α
[16] = patients at-risk for ARDS; cited from earlier work
[17] = rheumatoid arthritis, two trials; cited from earlier work
[18] = patients with Crohn's disease; cited from earlier work
[19] = patients with hypercholesterolemia; cited from earlier work
[20] = FIG. 9: pretreated i.p. with 1 mg, then 100 mg LPS i.t. at 39° C.
[21] = FIG. 10: 50 μg LPS i.t., 24 h at 39° C., 1 mg in 0.5 ml DMSO given 6 h post-LPS

T4 sequence (Q16539 whole entry): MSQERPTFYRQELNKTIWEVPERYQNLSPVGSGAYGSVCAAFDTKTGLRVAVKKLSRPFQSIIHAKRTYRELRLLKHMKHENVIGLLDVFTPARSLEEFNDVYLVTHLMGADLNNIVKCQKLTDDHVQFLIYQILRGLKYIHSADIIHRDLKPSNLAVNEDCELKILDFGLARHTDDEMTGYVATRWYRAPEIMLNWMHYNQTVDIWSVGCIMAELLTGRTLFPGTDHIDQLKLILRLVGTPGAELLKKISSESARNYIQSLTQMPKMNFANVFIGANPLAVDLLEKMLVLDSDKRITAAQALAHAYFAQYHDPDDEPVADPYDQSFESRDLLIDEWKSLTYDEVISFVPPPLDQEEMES
T1 sequence (Q15759 whole entry): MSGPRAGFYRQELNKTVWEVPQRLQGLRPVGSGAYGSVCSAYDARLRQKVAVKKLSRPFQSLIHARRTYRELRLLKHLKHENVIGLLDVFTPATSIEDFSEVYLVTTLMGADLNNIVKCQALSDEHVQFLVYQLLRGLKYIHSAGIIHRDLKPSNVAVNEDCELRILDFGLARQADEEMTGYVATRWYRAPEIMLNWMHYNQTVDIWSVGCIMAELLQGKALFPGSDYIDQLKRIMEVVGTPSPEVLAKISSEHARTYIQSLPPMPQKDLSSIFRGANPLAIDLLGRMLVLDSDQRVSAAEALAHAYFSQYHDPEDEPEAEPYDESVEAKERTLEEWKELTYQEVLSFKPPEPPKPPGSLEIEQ
Chain of ERK2 (P28482 whole entry, species assumed): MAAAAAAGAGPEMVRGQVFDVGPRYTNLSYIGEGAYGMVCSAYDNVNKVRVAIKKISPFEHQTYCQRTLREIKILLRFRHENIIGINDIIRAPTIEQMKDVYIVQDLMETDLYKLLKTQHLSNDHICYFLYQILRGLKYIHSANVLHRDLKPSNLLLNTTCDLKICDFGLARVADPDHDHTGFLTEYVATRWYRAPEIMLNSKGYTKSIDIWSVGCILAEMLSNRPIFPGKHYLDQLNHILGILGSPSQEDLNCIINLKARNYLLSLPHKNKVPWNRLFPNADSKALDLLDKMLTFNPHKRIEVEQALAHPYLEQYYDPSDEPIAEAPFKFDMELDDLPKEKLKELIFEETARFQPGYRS
T3 sequence (Q16539 whole entry R49K/H107T/L108F/K165R): as the sequence (Q16539 whole entry) above, with R49K, H107T, L108F, K165R counted along it
T2 sequence (Q16539 whole entry R49K/H107T/L108F/K165R): as the sequence (Q16539 whole entry) above, with R49K, H107T, L108F, K165R counted along it

For `O=C(Nc1ccc(CN2CCS(=O)(=O)CC2)cc1)c1ccc(Cl)cc1` [UM101, 4-chloro-N-{4-[(1,1-dioxo-1lambda˜6˜,4-thiazinan-4-yl)methyl]phenyl}benzamide], the “stabilization of ERK2 (DSF)” value [1] was “not ERK2”, the “stabilization of p38β (DSF)” value [2] was “only stabilized p38α” and the “binding to p38α mutant (DSF)” value [3] was “no UM101-binding”. For the same molecule, the “interaction with p38β (STD-NMR)” value [4] was “much weaker”, the “interaction with mutated p38α (STD-NMR)” value [5] was “much weaker” and the “reduction of TNFα/hyperthermia-induced permeability increase” value ([6]; 10 μM) was 74%. The “reduction of TNFα/hyperthermia-induced permeability increase” value ([6]; 25 μM) was 89%, the “reduction of TNFα/hyperthermia-induced permeability increase” value ([6]; 100 μM) was greater than 100% and the “reduction of hyperthermia-augmented neutrophil TEM” value ([7]; 10 μM) was 95%. For the same molecule, the “reduction of hyperthermia-augmented neutrophil TEM” value ([7]; 25 μM) was “less than baseline levels”, the “reduction of hyperthermia-augmented neutrophil TEM” value ([7]; 50 μM) was “less than baseline levels” and the “toxicity in MTS assay” value [8] was “Neither compound was toxic”. The “toxicity in LDH release assay” value [9] was “Neither compound was toxic”, the “anisomycin-stimulated phosphorylation of MK2” value ([10]; 50 μM) was “reduced” and the “anisomycin-stimulated phosphorylation of Stat-1” value ([11]; 50 μM) was “reduced”. The “protein leak into bronchoalveolar lavage fluid (total protein)” value [12, 20] was “reduced protein leak”, the “reduction of lavage neutrophil content vs. DMSO-treated controls” value ([13]; 100 μg i.p.) was 44.4% and the “reduction of lavage neutrophil content vs. DMSO-treated controls” value ([13]; 300 μg i.p.) was 49.5%. The “reduction of lavage neutrophil content vs. DMSO-treated controls” value ([13]; 500 μg i.p.) was 55.3%, the “reduction of lavage neutrophil content vs. DMSO-treated controls” value ([13]; 1000 μg i.p.) was 54% and the “survival of pretreated mice” value ([13]; 100, 300, 500 or 1000 μg i.p., 24 h) was “All sixteen UM101-pretreated mice survived”. For the same molecule, the “interaction with p38α (STD-NMR)” value [14] was “protons in both aromatic rings of UM101 interact with p38α”, the “stabilization of p38α (DSF)” value [15] was “only stabilized p38α” and the ΔTm at 100 µM [15] was roughly 0.7 °C.

With `CN(C)c1cccc2c(S(=O)(=O)Nc3ccc(CN4CCOCC4)cc3)cccc12` [SF-7-044] the “protein leak into bronchoalveolar lavage fluid (total protein)” value [12, 21] was “reduced protein leak”.

For `Cc1cc(F)ccc1-c1nc(NC(CO)CO)nc2c1ccc(=O)n2-c1c(F)cccc1F` [dilmapimod], the safety [16] is given as “safe at the doses administered” and the “serum C-reactive protein (CRP) levels” value [16] is given as “modestly reduced”.

With `O=C(Nc1ccc(CN2CCOCC2)cc1)c1ccc(Cl)cc1` [SF-7-009] the “protein leak into bronchoalveolar lavage fluid (total protein)” value [12, 20] was “reduced protein leak” and the “protein leak into bronchoalveolar lavage fluid (total protein)” value [12, 21] was “reduced protein leak”.

For `O=C1c2cc(S(=O)(=O)NCCO)ccc2-c2ccc(S(=O)(=O)NCCO)cc21` [UM60, N2,N7-di(2-hydroxyethyl)-9-oxo-9H-2,7-fluorenedisulfonamide], the “stabilization of ERK2 (DSF)” value [1] was “not ERK2”, the “reduction of TNFα/hyperthermia-induced permeability increase” value ([6]; 10 μM) was “no effect” and the “reduction of TNFα/hyperthermia-induced permeability increase” value ([6]; 25 μM) was “no effect”. The “reduction of TNFα/hyperthermia-induced permeability increase” value ([6]; 100 μM) was 71%, the “reduction of hyperthermia-augmented neutrophil TEM” value ([7]; 10 μM) was 18% and the “reduction of hyperthermia-augmented neutrophil TEM” value ([7]; 25 μM) was 89%. For the same molecule, the “reduction of hyperthermia-augmented neutrophil TEM” value ([7]; 50 μM) was “less than baseline levels”, the “toxicity in MTS assay” value [8] was “Neither compound was toxic” and the “toxicity in LDH release assay” value [9] was “Neither compound was toxic”. The “mice died within 24 h” value [13] was “Four of six”, the “stabilization of p38α (DSF)” value [15] was “stabilized p38α” and the ΔTm at 100 µM [15] was roughly 0.7 °C.

For `C[S+]([O-])c1ccc(-c2nc(-c3ccncc3)c(-c3ccc(F)cc3)[nH]2)cc1` (centres unmarked) [SB203580, reference compound], the “stabilization of p38β (DSF)” value [2] was “stabilized both p38α and p380”, the “reduction of TNFα/hyperthermia-induced permeability increase” value ([6]; 10 μM) was 50% and the “reduction of hyperthermia-augmented neutrophil TEM” value ([7]; 10 μM) was 84%. For the same molecule, the “anisomycin-stimulated phosphorylation of MK2” value ([10]; 10 μM) was “reduced”, the “anisomycin-stimulated phosphorylation of Stat-1” value ([11]; 10 μM) was “reduced” and the “reduction of lavage neutrophil content vs. DMSO-treated controls” value ([13]; 1000 μg i.p.) was 46.8%. The “mice died within 24 h” value [13] was “one of six”.

In the case of `NC(=O)c1ccc(N(C(N)=O)c2c(F)cccc2F)nc1-c1ccc(F)cc1F` [VX-702], the ACR20 symptom score [17] is listed as “small increases in proportion of treated subjects with ACR20 symptom score vs. placebo”.

In the case of `Cc1ccc(-n2nc(C(C)(C)C)cc2NC(=O)Nc2ccc(OCCN3CCOCC3)c3ccccc23)cc1` [BIRB 796, doramapimod], the clinical effect [18] is given as “no clinical effect” and the “serum CRP levels” value [18] is given as “transiently reduced”.

In the case of `Cc1c(F)cc(C(=O)NC2CC2)cc1-c1ccc(C(=O)NCC(C)(C)C)cn1` [losmapimod], the “serum CRP” value [19] is listed as “reduced serum CRP” and the vascular relaxation [19] is listed as “improved vascular relaxation”.

— patent US11078171B2, “Non-ATP/catalytic site p38 mitogen activated protein kinase inhibitors” (University of Maryland, Baltimore, priority 2018, dated 2021)
